Experimental data: patent US7029865B2, “DNA molecules encoding the melanocortin 4 receptor protein from rhesus monkey” (Merck & Co., Inc., priority 1998, dated 2006)

System: rhMC-4R
Test: Competitive binding assay, [125I]-NDP alpha MSH, membranes from rhesus MC-4R transfected cells
Conditions: read-out: IC50 rhMC-4R
Protocol: Reactions were incubated for 1 hour without shaking and then filtered through 96-well filter plates (Packard corp.). Filters were washed three times with TNE buffer (50 mM Tris pH 7.4, 5 mM EDTA, 150 mM NaCl), dried and counted using Microscint-20 in a Topcount scintillation counter (Packard).
Membranes prepared from rhesus MC-4R transfected cells were evaluated alongside membranes prepared from human MC-4R, MC-4R, and MC-5R expressing cells.

rhMC-4R, sequence (as listed by the source): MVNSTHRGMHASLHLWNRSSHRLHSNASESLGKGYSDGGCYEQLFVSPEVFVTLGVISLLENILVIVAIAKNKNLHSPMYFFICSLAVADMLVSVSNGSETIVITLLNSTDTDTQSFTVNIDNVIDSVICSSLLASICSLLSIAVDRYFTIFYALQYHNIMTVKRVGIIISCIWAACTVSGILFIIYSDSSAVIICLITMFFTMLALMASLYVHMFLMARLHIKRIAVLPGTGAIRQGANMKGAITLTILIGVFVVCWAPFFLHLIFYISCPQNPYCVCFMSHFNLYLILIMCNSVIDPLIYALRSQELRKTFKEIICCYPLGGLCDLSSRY

## NDP-alpha-MSH
  IC50: 1.3 nM
